Experiment: Biodistribution studies of [18F]-9 in normal mice
Type: in vivo
Details: for Blood uptake / Bone uptake / Brain uptake / Heart uptake / Kidney uptake / Liver uptake / Lung uptake: tail-vein injection
Protocol: Uptake in brain and other critical organs was analyzed in terms of percent injected dose per gram of the tissue (%ID/g) SI Table 1. For in vivo imaging of Aβ plaques, the basic pharmacokinetic model in normal brains involves a high initial penetration of the agent, accompanied by facile clearance due to lack of a binding target. […] For comparison, brain uptake ratios of [^18F]-AV-45 (2 min/2 h) and [^18F]-Florbetaben (2 min/4 h) in normal mice are 4.07 (%ID/g (brain): 2 min: 7.33 ± 1.54; 2 h: 1.80 ± 0.07; 7.33/1.80; 4.07)[10] and 5.0 (%ID/g (brain): 2 min: 4.77; 4 h: 0.95; 4.77/0.95; 5.02)[46], respectively. […] For an agent to be able to serve as an Aβ-imaging agent, literature precedents indicate that brain uptake ratio (%ID/g; the earliest time–point; 2–5 min to that of the latest time point; typically for carbon-11; 30–60 min; and F-18, 2 h) of 3.5 or above could be considered as a benchmark for ability of a given agent to cross the blood-brain barrier. Additionally, the brain uptake of a given imaging agent is also a net function of several components, such as cerebral regional blood flow, BBB permeability, plasma radiotracer concentration, and free fractions of the radiotracer in plasma and in the brain. Furthermore, the lipophilicity of a given compound also reflects a critical physicochemical trait for neuroimaging radiotracers due to its direct relationship to membrane permeability, solubility in water, and entropic contribution to binding. Literature precedents indicate that lipophilic drugs readily cross the BBB, although other chemical characteristics, including the number of hydrogen bonds, molecular weight, polar surface area and molecular size are also known to be critical traits for passive transport. […] Conversely, radiotracers that are too lipophilic can also bind plasma proteins, undergo fast metabolism, while also contributing to high nonspecific binding, such as white matter. […] Additionally, the agent [^18F]-9 excreted from other critical organs over 2 h (SI, Table 1); a critical factor likely to result in favorable dosimetry; although slight defluorination as a function of time is also evident from bone accumulation; yet consistent with pharmacokinetic profiles of other FDA approved agents. For assessing directly the ability of radiotracer to traverse the BBB, [^18F]-9 (170 μCi) was injected into a 24 months old APP/PS1 transgenic mouse and its age-matched WT counterpart, and 30 min post tail-vein injection, the brains were removed, frozen, and sectioned for autoradiography (Fig. 7A–E). […] For ROI analysis of the PET signal in brain section autoradiograms of transgenic mouse (Fig. 7A) and its WT counterpart (Fig. 7D), we used measured count densities in cortex and amygdala target regions and compared them with that of hypothalamus as reference region with a low plaque density as determined by Aβ immunostaining (Fig. 7B). The target/reference ratio (mean ± SD) in the transgenic mouse was 1.88 ± 0.22 compared to 0.96 ± 0.12 in the WT control mouse (Fig. 7E). Since brain stem was also devoid of plaques, we also analyzed the above target regions using brain stem as a reference region, and observed target/reference value in the transgenic to be 0.89 ± 0.1 compared to 0.45 ± 0.07 in the WT mouse. […]
The count intensity (expressed as quantitative light unit (QL)/pixel2) was measured for each ROI after background subtraction, and target/reference ratios for Tg and WT brain were used to compare radiotracer uptake. The final figure was assembled in Adobe Photoshop CS3.
All animal procedures were approved by the Washington University Animal Studies Committee (Protocol # 20150147; Expiration 7/31/18). Thus, biodistribution studies were carried out in "accordance" with the approved guidelines. Pharmacokinetics of 18F-9 in brain and other critical tissues of normal male 12 week old BL6 (WT; 28-36 g) mice were determined as previously described 15. Briefly, 18F-9 (740 kBq) was […]

CN(C)c1ncc(/C=C\c2nc3cc(OCC[18F])ccc3[se]2)cn1 [[^18F]-9]
brain uptake clearance ratio superior to [18F]-AV-45 (healthy mice, 2 min/120 min): 1.3 fold
brain clearance ratio (%ID/g) 2 min/120 min (normal mice): 5.33
Blood uptake (normal mice, 2 min): 4.79 ± 0.33 % ID/g
Bone uptake (normal mice, 2 min): 1.15 ± 0.15 % ID/g
Brain uptake (normal mice, 2 min): 8.86 ± 0.32 % ID/g
Heart uptake (normal mice, 2 min): 8.56± 0.78 % ID/g
Kidney uptake (normal mice, 2 min): 14.93± 0.85 % ID/g
Liver uptake (normal mice, 2 min): 35.44 ± 2.52 % ID/g
Lung uptake (normal mice, 2 min): 10.07± 0.74 % ID/g
Blood uptake (normal mice, 60 min): 2.27 ± 0.06 % ID/g
Bone uptake (normal mice, 60 min): 3.88 ± 1.48 % ID/g
Brain uptake (normal mice, 60 min): 1.80 ± 0.02 % ID/g
Heart uptake (normal mice, 60 min): 2.15 ± 0.02 % ID/g
Kidney uptake (normal mice, 60 min): 2.52 ± 0.06 % ID/g
Liver uptake (normal mice, 60 min): 8.64 ± 0.15 % ID/g
Lung uptake (normal mice, 60 min): 2.23 ± 0.11 % ID/g
Blood uptake (normal mice, 120 min): 2.16 ± 0.03 % ID/g
Bone uptake (normal mice, 120 min): 6.08 ± 0.85 % ID/g
Brain uptake (normal mice, 120 min): 1.66 ± 0.01 % ID/g
Heart uptake (normal mice, 120 min): 1.92 ± 0.05 % ID/g
Kidney uptake (normal mice, 120 min): 2.12 ± 0.09 % ID/g
Liver uptake (normal mice, 120 min): 8.13 ± 0.12 % ID/g
Lung uptake (normal mice, 120 min): 1.98 ± 0.05 % ID/g

Reference: article PMC5090206, “Fluselenamyl: A Novel Benzoselenazole Derivative for PET Detection of Amyloid Plaques (Aβ) in Alzheimer’s Disease” (Scientific Reports, 2016)
